US20210238201A1, “ANTIMICROBIAL COMPOUNDS AND COMPOSITIONS” (AGROFRESH INC., priority 2020, published 2021)
Converted amounts (≈) assume the structure as drawn.

Key:
[1] = system: Botrytis cinerea (ATCC #204446); test: Grape in vivo analysis, volatile bioassay on inoculated green table grape; parameters: species or system Botrytis cinerea on green table grape
Protocol: In order to assess the in vivo activity of volatile antimicrobial compounds, a volatile bioassay is developed using green table grape. Fruit are removed from the rachis, and 16 to 20 fruit are placed inside a 1 dry pint clamshell (Produce Packaging; Product #03231004KZ) with the stem wound facing upwards. The grapes are inoculated by pipetting 20 μL of 1×10^6 spore per ml Botrytis cinerea (ATCC #204446) into the stem wound. The clamshell is placed inside a 2.55 L plastic container (Snapware; Model #1098421). A Whatman #1 filter paper (4.25 cm; Cat. No. 1001-042) is placed on a watchglass, which is then placed on top of the closed clamshell lid. For determination of the MIC, test compounds are diluted in acetone, and 400 μl of the solution is added to disks, in duplicate, in a dose dependent manner (for example 0.4 to 50 mg/liter). The acetone is permitted to evaporate for 5 minutes. The plastic containers are then closed and placed for 3 days at 21° C. Clamshells are then removed from the treatment plastic container and placed into separate larger secondary containers for a further 3 days of evaluation at 21° C. During these 3 days, fruit are evaluated daily for incidence and severity of disease and symptoms of phytotoxicity.

[2] = system: Botrytis cinerea (ATCC #204446); test: Strawberry in vivo analysis, volatile bioassay on wound-inoculated strawberry; parameters: species or system Botrytis cinerea on strawberry
Protocol: In order to assess the in vivo activity of volatile antimicrobial compounds, a volatile bioassay is developed using strawberry. Fruit (6 to 8) are placed inside a 1 lb clamshell (Packaging Direct Inc.; Product #4341699) with the calyx facing downward. The strawberry fruit are wound-inoculated by pipetting 20 μL of 1×10^6 spore per ml Botrytis cinerea (ATCC #204446) into a wound approximately 5 mm deep and 2.6 mm in width. The clamshell is placed inside a 2.55 L plastic container (Snapware; Model #1098421). A Whatman #1 filter paper (4.25 cm; Cat. No. 1001-042) is placed on a watchglass, which is then placed on top of the closed clamshell lid. For determination of the MIC, test compounds are diluted in acetone, and 400 μl of the solution is added to disks, in duplicate, in a dose dependent manner (for example 0.4 to 50 mg/liter). The acetone is permitted to evaporate for 5 minutes. The plastic containers are then closed and placed for 3 days at 21° C. Clamshells are then removed from the treatment plastic container and placed into separate larger secondary containers for a further 3 days of evaluation at 21° C. During these 3 days, fruit are evaluated daily for incidence and severity of disease and symptoms of phytotoxicity.

[3] = system: Escherichia coli (ATCC #25922); test: in vitro inhibition assay for volatile antimicrobial compounds against bacteria (LB agar); assay type: cell-based; details: volatile headspace exposure, 2 days at 23° C.
Protocol: 12-well (6.5 ml volume per well) microtiter plates are used for the in vitro inhibition assay for volatile antimicrobial compounds. A 3-ml volume of full-strength L^B Agar is added to each well. After cooling, 15 μL of Escherichia coli (ATCC #25922) adjusted to an optical density of 0.02 to 0.035, and further diluted 1/10 is pipetted to the center of the agar. The plate is tilted to distribute bacteria uniformly. Whatman #1 filter disks (1.5 cm; Cat. No. 1001-0155) are placed on the underside of a polyethylene PCR plate sealing film. […] The acetone is permitted to evaporate for 5 minutes. The headspace around the Escherichia coli inoculum is then sealed inside the well by the film with the adhering disk containing the antimicrobial, anti-decay, anti-spoilage, or pathogen control agent. Plates are inverted, placed over the treated disks and sealed to prevent any of the chemical from flaking from the disk and falling onto the inoculated agar. After 2 days of incubation at 23° C., cultures were evaluated for colony growth relative to control.

Monilinia fructicola = test: in vitro inhibition assay for volatile antimicrobial compounds (headspace, PDA agar); assay type: cell-based; details: volatile headspace exposure
Protocol: [The procedure below names another organism; the source lists this organism under the same test.] (§1) 12-well (6.5 ml volume per well) microtiter plates are used for the in vitro inhibition assay for volatile antimicrobial compounds. A 3-ml volume of full-strength Potato Dextrose Agar (PDA) is added to each well. After cooling, 1 μL of 1×10^5 spores per ml Botrytis cinerea (ATCC #204446) spore suspension is spot pipetted to the agar in the center of the well. Whatman #1 filter disks (1.5 cm; Cat. No. 1001-0155) are placed on the underside of a polyethylene PCR plate sealing film. For determination of the minimum inhibitory concentration (MIC), test compounds are diluted in acetone, in duplicate, and 50 μli of the compound solution is added to disks at concentrations that can vary from 0.001 mg/l to 1142.9 mg/l. The acetone is permitted to evaporate for 5 minutes. The headspace around the Botrytis cinerea inoculum is then sealed inside the well by the film with the adhering disk containing the antimicrobial, anti-decay, anti-spoilage, or pathogen control agent. Plates are inverted to prevent any possibility of the chemical from flaking from the disk and falling onto the inoculated agar.

[4] = system: Botrytis cinerea (ATCC #204446); test: as above; assay type: cell-based; details: Botrytis cinerea, ATCC204446, 72 h, volatile headspace exposure, 3 days at 23° C.
Protocol: as §1

Penicillium expansum = test: as above; assay type: cell-based; details: volatile headspace exposure
Protocol: [The procedure below names another organism; the source lists this organism under the same test.] as §1

Alternaria alternata = test: as above; assay type: cell-based; details: volatile headspace exposure
Protocol: [The procedure below names another organism; the source lists this organism under the same test.] as §1

Glomerella cingulata = test: as above; assay type: cell-based; details: Colletotrichum gloeosporioides; volatile headspace exposure
[5] = symptoms of phytotoxicity evaluated daily

Row | EC50 (Monilinia fructicola) [µg/mL] | MIC (Monilinia fructicola) [µg/mL] | MIC [4] [µg/mL] | EC50 ([4]; growth relative to control) [µg/mL] | EC50 (Penicillium expansum) [µg/mL] | MIC (Penicillium expansum) [µg/mL] | EC50 (Alternaria alternata) [µg/mL] | MIC (Alternaria alternata) [µg/mL] | EC50 (Glomerella cingulata) [µg/mL] | MIC (Glomerella cingulata) [µg/mL] | SMILES | antimicrobial activity against Botrytis cinerea in grape in vivo analysis ([1]; stem wound inoculated, 3 days treatment at 21° C. plus 3 days evaluation) | phytotoxicity in grape in vivo analysis [1, 5] | phytotoxicity in strawberry in vivo analysis [2, 5] | antimicrobial activity against Botrytis cinerea in strawberry in vivo analysis ([2]; wound-inoculated, 3 days treatment at 21° C. plus 3 days evaluation) | antimicrobial activity against Escherichia coli (colony growth relative to control) [3]
1 | 6.8 (≈ 23.1 µM) | 35.7 (≈ 121 µM) | 2.2 (≈ 7.48 µM) | 0.9 (≈ 3.06 µM) | 2.5 (≈ 8.51 µM) | 8.9 (≈ 30.3 µM) | < 0.6 | 8.9 (≈ 30.3 µM) | 11.1 (≈ 37.8 µM) | 143 (≈ 486 µM) | c1ccc2c(c1)COB2OCCOB1OCc2ccccc21 [Compound 1, 1,2-bis(benzo[c][1,2]oxaborol-1(3H)-yloxy)ethane] | good antimicrobial activity | no phytotoxicity | no phytotoxicity | good antimicrobial activity | good antimicrobial activity
2 |  |  |  |  | 12.2 (≈ 36.3 µM) | 71.4 (≈ 212 µM) | 2.3 (≈ 6.85 µM) | 8.9 (≈ 26.5 µM) | 9.1 (≈ 27.1 µM) | 143 (≈ 425 µM) | CC(C)(COB1OCc2ccccc21)COB1OCc2ccccc21 [Compound 2, 1,1′-((2,2-dimethylpropane-1,3-diyl)bis(oxy))bis(1,3-dihydrobenzo[c][1,2]oxaborole)] |  |  |  |  | 
